Data: paper PMC5218480 (PLoS ONE, 2017)

Test system: MV-4-11 cells
Experiment: Gene expression microarray analysis (Affymetrix PrimeView) and GSEA
Type: cell-based, human
Design: RFU PODN (11730768_x_at) / Fold change /veh PODN (11730768_x_at) / RFU LINC00158 (11744669_a_at) / Fold change /veh LINC00158 (11744669_a_at) / RFU DUSP10 (11751237_a_at) / Fold change /veh DUSP10 (11751237_a_at) / RFU ID3 (11757404_x_at) / Fold change /veh ID3 (11757404_x_at) / RFU PLEKHG5 (11737974_s_at) / Fold change /veh PLEKHG5 (11737974_s_at) / RFU LRRC4B (11730491_at) / Fold change /veh LRRC4B (11730491_at) / RFU GIMAP4 (11747438_a_at) / Fold change /veh GIMAP4 (11747438_a_at) / RFU KRT8 (11758183_x_at) / Fold change /veh KRT8 (11758183_x_at) / RFU CNN1 (11734310_a_at) / Fold change /veh CNN1 (11734310_a_at) / RFU VPS37D (11726825_at) / Fold change /veh VPS37D (11726825_at) / RFU C10orf10 (11716522_x_at) / Fold change /veh C10orf10 (11716522_x_at) / RFU KIR2DL2 /// KIR2DL4 /// KIR2DL5A /// KIR2DL5B /// KIR2DS1 /// KIR2DS2 /// KIR2DS3 /// KIR2DS4 /// KIR3DL3 /// KIR3DL3 /// KIR3DS1 (11738374_at) / Fold change /veh KIR2DL2 /// KIR2DL4 /// KIR2DL5A /// KIR2DL5B /// KIR2DS1 /// KIR2DS2 /// KIR2DS3 /// KIR2DS4 /// KIR3DL3 /// KIR3DL3 /// KIR3DS1 (11738374_at) / RFU C1QL1 (11718748_at) / Fold change /veh C1QL1 (11718748_at) / RFU TMPRSS4 (11747572_a_at) / Fold change /veh TMPRSS4 (11747572_a_at) / RFU HAMP (11756126_x_at) / Fold change /veh HAMP (11756126_x_at) / RFU RNFT2 (11725882_a_at) / Fold change /veh RNFT2 (11725882_a_at) / RFU NR4A2 (11747474_a_at) / Fold change /veh NR4A2 (11747474_a_at) / RFU ABCC12 (11746883_a_at) / Fold change /veh ABCC12 (11746883_a_at) / RFU TMEM136 (11760407_x_at) / Fold change /veh TMEM136 (11760407_x_at) / RFU CLDN22 /// WWC2 (11732394_at) / Fold change /veh CLDN22 /// WWC2 (11732394_at) / RFU HLA-DPB1 (11760878_x_at) / Fold change /veh HLA-DPB1 (11760878_x_at) / RFU SPINT1 (11716480_a_at) / Fold change /veh SPINT1 (11716480_a_at) / RFU GAP43 (11754022_s_at) / Fold change /veh GAP43 (11754022_s_at) / RFU A4GNT (11735810_at) / Fold change /veh A4GNT (11735810_at) / RFU PRB3 (11715151_x_at) / Fold change /veh PRB3 (11715151_x_at) / RFU TUBB4B (11761932_at) / Fold change /veh TUBB4B (11761932_at) / RFU CAPN14 (11732068_a_at) / Fold change /veh CAPN14 (11732068_a_at) / RFU TMCC2 (11721928_a_at) / Fold change /veh TMCC2 (11721928_a_at) / RFU IRGQ (11745062_a_at) / Fold change /veh IRGQ (11745062_a_at) / RFU FAM174B (11720279_a_at) / Fold change /veh FAM174B (11720279_a_at) / RFU TMPRSS4 (11748680_a_at) / Fold change /veh TMPRSS4 (11748680_a_at) / RFU FAM212B (11763350_a_at) / Fold change /veh FAM212B (11763350_a_at) / RFU PLEKHG5 (11743358_a_at) / Fold change /veh PLEKHG5 (11743358_a_at) / RFU ZSCAN30 (11745921_a_at) / Fold change /veh ZSCAN30 (11745921_a_at) / RFU CMKLR1 (11741424_a_at) / Fold change /veh CMKLR1 (11741424_a_at) / RFU LOC101060620 /// MAPK8IP1 (11723275_at) / Fold change /veh LOC101060620 /// MAPK8IP1 (11723275_at) / RFU SPTSSB (11747773_x_at) / Fold change /veh SPTSSB (11747773_x_at) / RFU PRSS12 (11739890_at) / Fold change /veh PRSS12 (11739890_at) / RFU BIN1 (11741810_x_at) / Fold change /veh BIN1 (11741810_x_at) / RFU WNT11 (11732464_a_at) / Fold change /veh WNT11 (11732464_a_at) / RFU C10orf10 (11716521_a_at) / Fold change /veh C10orf10 (11716521_a_at) / RFU C5orf56 (11738089_at) / Fold change /veh C5orf56 (11738089_at) / RFU CYB561 (11721691_x_at) / Fold change /veh CYB561 (11721691_x_at) / RFU ANKRD19P (11752326_a_at) / Fold change /veh ANKRD19P (11752326_a_at) / RFU OR2T12 /// OR2T33 /// OR2T8 (11738714_s_at) / Fold change /veh OR2T12 /// OR2T33 /// OR2T8 (11738714_s_at) / RFU VCAN (11748164_a_at) / Fold change /veh VCAN (11748164_a_at) / RFU JSRP1 (11732532_at) / Fold change /veh JSRP1 (11732532_at) / RFU KRTAP10-11 (11738290_x_at) / Fold change /veh KRTAP10-11 (11738290_x_at) / RFU MYO3A (11730013_a_at) / Fold change /veh MYO3A (11730013_a_at) / RFU EBF3 (11725865_a_at) / Fold change /veh EBF3 (11725865_a_at) / RFU CAMK2N1 (11719241_x_at) / Fold change /veh CAMK2N1 (11719241_x_at) / RFU C5orf56 (11738088_a_at) / Fold change /veh C5orf56 (11738088_a_at) / RFU OLFML3 (11715873_a_at) / Fold change /veh OLFML3 (11715873_a_at) / RFU LOC100653217 /// NTM (11731650_a_at) / Fold change /veh LOC100653217 /// NTM (11731650_a_at) / RFU MAPK11 (11762145_a_at) / Fold change /veh MAPK11 (11762145_a_at) / RFU FIZ1 (11724087_x_at) / Fold change /veh FIZ1 (11724087_x_at) / RFU OASL (11726364_x_at) / Fold change /veh OASL (11726364_x_at) / RFU SOX15 (11748057_x_at) / Fold change /veh SOX15 (11748057_x_at) / RFU CD79A (11719716_a_at) / Fold change /veh CD79A (11719716_a_at) / RFU HIST1H1D (11736915_at) / Fold change /veh HIST1H1D (11736915_at) / RFU CASKIN2 (11723855_a_at) / Fold change /veh CASKIN2 (11723855_a_at) / RFU LOC730098 (11760151_x_at) / Fold change /veh LOC730098 (11760151_x_at) / RFU OR4N2 (11742367_at) / Fold change /veh OR4N2 (11742367_at) / RFU PRRT2 (11749266_a_at) / Fold change /veh PRRT2 (11749266_a_at) / RFU SNX32 (11753110_a_at) / Fold change /veh SNX32 (11753110_a_at) / RFU CDHR5 (11726645_a_at) / Fold change /veh CDHR5 (11726645_a_at) / RFU RCAN1 (11760418_a_at) / Fold change /veh RCAN1 (11760418_a_at) / RFU FAM167A (11723789_a_at) / Fold change /veh FAM167A (11723789_a_at) / RFU FAM26E (11764081_at) / Fold change /veh FAM26E (11764081_at) / RFU ISYNA1 (11749810_s_at) / Fold change /veh ISYNA1 (11749810_s_at) / RFU ACY1 (11761880_at) / Fold change /veh ACY1 (11761880_at) / RFU 11764098_at / Fold change /veh 11764098_at / RFU SAMD14 (11745864_x_at) / Fold change /veh SAMD14 (11745864_x_at) / RFU NPB (11741838_a_at) / Fold change /veh NPB (11741838_a_at) / RFU TMPRSS6 (11731388_a_at) / Fold change /veh TMPRSS6 (11731388_a_at) / RFU KRTAP10-2 (11738614_at) / Fold change /veh KRTAP10-2 (11738614_at) / RFU ARHGAP8 /// PRR5-ARHGAP8 (11727945_x_at) / Fold change /veh ARHGAP8 /// PRR5-ARHGAP8 (11727945_x_at) / RFU KRTAP5-7 /// NADSYN1 (11734609_at) / Fold change /veh KRTAP5-7 /// NADSYN1 (11734609_at) / RFU RASL12 (11751679_a_at) / Fold change /veh RASL12 (11751679_a_at) / RFU CDKN2B (11736163_a_at) / Fold change /veh CDKN2B (11736163_a_at) / RFU PRF1 (11729649_at) / Fold change /veh PRF1 (11729649_at) / RFU, ZNF638 /// ZNF638-IT1 / Fold change vs veh, ZNF638 /// ZNF638-IT1 / RFU, PANK3 / Fold change vs veh, PANK3 / RFU, SH3YL1 / Fold change vs veh, SH3YL1 / RFU, ZEB2 / Fold change vs veh, ZEB2 / RFU, NRIP1 / Fold change vs veh, NRIP1 / RFU, PTTG1IP / Fold change vs veh, PTTG1IP / RFU, CAPN2 / Fold change vs veh, CAPN2 / RFU, MED14 / Fold change vs veh, MED14 / RFU, SNORA58 / Fold change vs veh, SNORA58 / RFU, C1orf63 / Fold change vs veh, C1orf63 / RFU, LRRFIP1 / Fold change vs veh, LRRFIP1 / RFU, NDUFAF7 / Fold change vs veh, NDUFAF7 / RFU, SLC12A2 / Fold change vs veh, SLC12A2 / RFU, IBTK / Fold change vs veh, IBTK / RFU, ESF1 / Fold change vs veh, ESF1 / Fold change vs veh, TMEM50B / RFU, TAOK1 / Fold change vs veh, TAOK1 / RFU, ACBD3 / Fold change vs veh, ACBD3 / RFU, TMA16 / Fold change vs veh, TMA16 / RFU, RWDD3 / Fold change vs veh, RWDD3 / RFU, BCAT1 / Fold change vs veh, BCAT1 / RFU, EDEM3 / Fold change vs veh, EDEM3 / RFU, TMEM33 / Fold change vs veh, TMEM33 / RFU, WDR75 / Fold change vs veh, WDR75 / RFU, AHCTF1 / Fold change vs veh, AHCTF1 / RFU, TFRC / Fold change vs veh, TFRC / RFU, ZDHHC17 / Fold change vs veh, ZDHHC17 / RFU, NOM1 / Fold change vs veh, NOM1 / RFU, ARL8B / Fold change vs veh, ARL8B / RFU, ZBTB11 / Fold change vs veh, ZBTB11 / RFU, TAMM41 / Fold change vs veh, TAMM41 / RFU, KIAA1704 /// LOC100996395 / Fold change vs veh, KIAA1704 /// LOC100996395 / RFU, ING1 / Fold change vs veh, ING1 / RFU, TRMT61B / Fold change vs veh, TRMT61B / RFU, FUBP3 / Fold change vs veh, FUBP3 / RFU, TP53 / Fold change vs veh, TP53 / RFU, TNKS2 / Fold change vs veh, TNKS2 / RFU, ZFP14 / Fold change vs veh, ZFP14 / RFU, ACTR2 / Fold change vs veh, ACTR2 / RFU, PPP3R1 / Fold change vs veh, PPP3R1 / RFU, PIK3R1 / Fold change vs veh, PIK3R1 / RFU, HNRNPA1 / Fold change vs veh, HNRNPA1 / RFU, RNF170 / Fold change vs veh, RNF170 / RFU, ZNF28 / Fold change vs veh, ZNF28 / RFU, RNGTT / Fold change vs veh, RNGTT / RFU, OGT / Fold change vs veh, OGT / RFU, BRD1 / Fold change vs veh, BRD1 / RFU, MARS / Fold change vs veh, MARS / RFU, ZNF655 / Fold change vs veh, ZNF655 / RFU, FAHD1 / Fold change vs veh, FAHD1 / RFU, BDP1 / Fold change vs veh, BDP1 / RFU, LRRCC1 / Fold change vs veh, LRRCC1 / RFU, ARID1A / Fold change vs veh, ARID1A / RFU, ZNF146 / Fold change vs veh, ZNF146 / RFU, ZNF330 / Fold change vs veh, ZNF330 / RFU, GPN3 / Fold change vs veh, GPN3 / RFU, C9orf123 / Fold change vs veh, C9orf123 / RFU, N4BP2L2 / Fold change vs veh, N4BP2L2 / RFU, ARFIP1 / Fold change vs veh, ARFIP1 / RFU, FAM179B / Fold change vs veh, FAM179B / RFU, BCL10 / Fold change vs veh, BCL10 / RFU, UHRF1BP1L / Fold change vs veh, UHRF1BP1L / RFU, BET1 / Fold change vs veh, BET1 / RFU, CNOT2 / Fold change vs veh, CNOT2 / RFU, ZNF268 / Fold change vs veh, ZNF268 / Fold change vs veh, ZNF507 / RFU, DGCR2 / Fold change vs veh, DGCR2 / RFU, WDSUB1 / Fold change vs veh, WDSUB1 / Fold change vs veh, HSP90B1 /// MIR3652 / RFU, ADSS / Fold change vs veh, ADSS / RFU, GK / Fold change vs veh, GK / RFU, ZNF148 / Fold change vs veh, ZNF148 / RFU, TAF9 / Fold change vs veh, TAF9 / RFU, SLC1A5 / Fold change vs veh, SLC1A5 / RFU, SLMO2 / Fold change vs veh, SLMO2 / RFU, ABCC4 / Fold change vs veh, ABCC4 / RFU, LOC101060439 /// RAP1B / Fold change vs veh, LOC101060439 /// RAP1B / RFU, RFX7 / Fold change vs veh, RFX7 / RFU, GTPBP10 / Fold change vs veh, GTPBP10 / RFU, CNEP1R1 / Fold change vs veh, CNEP1R1 / RFU, BIVM-ERCC5 /// ERCC5 / Fold change vs veh, BIVM-ERCC5 /// ERCC5 / RFU, ILF3 / Fold change vs veh, ILF3 / RFU 11762660_at / Fold change /veh 11762660_at / RFU VCAN (11757783_s_at) / Fold change /veh VCAN (11757783_s_at) / RFU DDX43 (11728927_at) / Fold change /veh DDX43 (11728927_at) / RFU KRT8 (11758188_x_at) / Fold change /veh KRT8 (11758188_x_at) / RFU NKD1 (11759106_at) / Fold change /veh NKD1 (11759106_at) / RFU SRD5A1 (11742802_a_at) / Fold change /veh SRD5A1 (11742802_a_at) / RFU TPSAB1 /// TPSB2 (11721975_s_at) / Fold change /veh TPSAB1 /// TPSB2 (11721975_s_at) / RFU GSTM3 (11746129_a_at) / Fold change /veh GSTM3 (11746129_a_at) / RFU IL23R (11737362_x_at) / Fold change /veh IL23R (11737362_x_at) / RFU TMEM51 (11727254_a_at) / Fold change /veh TMEM51 (11727254_a_at) / RFU PIWIL2 (11732686_x_at) / Fold change /veh PIWIL2 (11732686_x_at) / RFU ORM1 (11744905_x_at) / Fold change /veh ORM1 (11744905_x_at) / RFU CCDC152 (11743942_at) / Fold change /veh CCDC152 (11743942_at) / RFU ECM1 (11717891_a_at) / Fold change /veh ECM1 (11717891_a_at) / RFU IL23R (11748794_a_at) / Fold change /veh IL23R (11748794_a_at) / RFU TNFAIP8L3 (11732012_x_at) / Fold change /veh TNFAIP8L3 (11732012_x_at) / RFU MBOAT4 (11741988_at) / Fold change /veh MBOAT4 (11741988_at) / RFU 11764193_at / Fold change /veh 11764193_at / RFU TMEM53 (11763286_at) / Fold change /veh TMEM53 (11763286_at) / RFU MAGEB2 (11727129_at) / Fold change /veh MAGEB2 (11727129_at) / RFU TMEM200A (11744735_a_at) / Fold change /veh TMEM200A (11744735_a_at) / RFU CCDC152 (11751479_a_at) / Fold change /veh CCDC152 (11751479_a_at) / RFU FAM211A (11726209_a_at) / Fold change /veh FAM211A (11726209_a_at) / RFU RGS16 (11746705_a_at) / Fold change /veh RGS16 (11746705_a_at) / RFU VCAN (11755009_s_at) / Fold change /veh VCAN (11755009_s_at) / RFU RHOB (11743442_s_at) / Fold change /veh RHOB (11743442_s_at) / RFU RGS16 (11720943_a_at) / Fold change /veh RGS16 (11720943_a_at) / RFU RGS16 (11720944_at) / Fold change /veh RGS16 (11720944_at) / RFU, VPS4B / Fold change vs veh, VPS4B / RFU, CREB1 / Fold change vs veh, CREB1 / RFU, DNAJC13 / Fold change vs veh, DNAJC13 / RFU, GNAQ / Fold change vs veh, GNAQ / RFU, CDK5R1 / Fold change vs veh, CDK5R1 / RFU, ZRANB3 / Fold change vs veh, ZRANB3 / RFU, CUL4A / Fold change vs veh, CUL4A / RFU, CCNY / Fold change vs veh, CCNY / RFU, UFL1 / Fold change vs veh, UFL1 / RFU, COG3 / Fold change vs veh, COG3 / RFU, DIAPH2 / Fold change vs veh, DIAPH2 / RFU, SKA2 / Fold change vs veh, SKA2 / RFU, AFF3 / Fold change vs veh, AFF3 / RFU, LMF1 / Fold change vs veh, LMF1 / RFU, IPO11 / Fold change vs veh, IPO11 / RFU, DFFB / Fold change vs veh, DFFB / RFU, FOXP1 / Fold change vs veh, FOXP1 / RFU, CARD8 / Fold change vs veh, CARD8 / RFU, STRN3 / Fold change vs veh, STRN3 / RFU, ADK / Fold change vs veh, ADK / RFU, RASSF2 / Fold change vs veh, RASSF2 / RFU, WIPF1 / Fold change vs veh, WIPF1 / RFU, LARP1B / Fold change vs veh, LARP1B / RFU, RASA1 / Fold change vs veh, RASA1 / RFU, RB1 / Fold change vs veh, RB1 / RFU, PPFIA1 / Fold change vs veh, PPFIA1 / RFU, MAT2A / Fold change vs veh, MAT2A / RFU, CCT5 / Fold change vs veh, CCT5 / RFU, WDR92 / Fold change vs veh, WDR92 / RFU, CUX1 / Fold change vs veh, CUX1 / RFU, TTC7A / Fold change vs veh, TTC7A / RFU, TMEM135 / Fold change vs veh, TMEM135 / RFU, DEPTOR / Fold change vs veh, DEPTOR / RFU, CPM / Fold change vs veh, CPM / RFU, DNAJB6 / Fold change vs veh, DNAJB6 / RFU, CACNA2D3 / Fold change vs veh, CACNA2D3 / RFU, DTX4 / Fold change vs veh, DTX4 / RFU, TFCP2 / Fold change vs veh, TFCP2 / RFU, GMCL1 /// GMCL1P1 / Fold change vs veh, GMCL1 /// GMCL1P1 / RFU, AEBP2 / Fold change vs veh, AEBP2 / RFU, SNHG1 /// SNORD22 /// SNORD25 /// SNORD26 /// SNORD27 /// SNORD28 /// SNORD29 /// SNORD31 / Fold change vs veh, SNHG1 /// SNORD22 /// SNORD25 /// SNORD26 /// SNORD27 /// SNORD28 /// SNORD29 /// SNORD31 / Fold change (Aza/veh), C12orf56 (ProbeSet 11735607_a_at) / Fold change (ACY-1035/veh), C12orf56 (ProbeSet 11735607_a_at) / Fold change (Aza/veh), FGFR1OP (ProbeSet 11751329_s_at) / Fold change (ACY-1035/veh), FGFR1OP (ProbeSet 11751329_s_at) / Fold change (Aza/veh), VPS36 (ProbeSet 11739960_a_at) / Fold change (ACY-1035/veh), VPS36 (ProbeSet 11739960_a_at) / RFU SYPL1 (11715823_x_at) / Fold change /veh SYPL1 (11715823_x_at) / RFU IGFBP7 (11715501_s_at) / Fold change /veh IGFBP7 (11715501_s_at) / RFU REEP3 (11722064_at) / Fold change /veh REEP3 (11722064_at) / RFU IGLL1 (11728026_x_at) / Fold change /veh IGLL1 (11728026_x_at): dose or concentration left out as unconfirmed
Details: gene VPS36; Azacitidine vs DMSO; LIST F

Nc1ncn([C@@H]2O[C@H](CO)[C@@H](O)[C@H]2O)c(=O)n1 [azacitidine]
Fold change (Aza/veh), VPS36 (ProbeSet 11739960_a_at): 1.14
